Experimental data reported in patent publication US4578395A, “Certain aralkylaminoalkyl esters of 1,4 dihydropyridines as antihypertensive” (Teijin Limited, priority 1983, dated 1986).

Tests used:
[1] = prior art; cited from earlier work
conscious rats = experiment: Antihypertensive activity by oral administration in conscious rats; assay type: in vivo, Male Wistar rats; conditions: 10 mg/kg oral
Procedure: When one hour or more passed after the rats were aroused, they were administered the test compound orally.
The blood pressure in the femoral artery was recorder and changes in the mean blood pressure were obtained from the following equation. [formula]

CCOC(=O)C1=C(C)NC(C)=C(C(=O)OC)C1c1cccc(Cl)c1Cl (centres unmarked) [Felodipine, 4-(2,3-dichlorophenyl)-2,6-dimethyl-1,4-dihydropyridine-3,5-dicarboxylic acid-3-methyl ester-5-ethyl ester, reference compound]
solubility in water [1]: very purely soluble in water
Changes in mean blood pressure (conscious rats; after 30 min): -34 mmHg
Changes in mean blood pressure (conscious rats; after 60 min): -27 mmHg
Changes in mean blood pressure (conscious rats; after 90 min): -24 mmHg
Changes in mean blood pressure (conscious rats; after 2 hr): -22 mmHg
Changes in mean blood pressure (conscious rats; after 3 hr): -17 mmHg
Changes in mean blood pressure (conscious rats; after 5 hr): -10 mmHg
Changes in mean blood pressure (conscious rats; after 7 hr): -5 mmHg
